Laboratory results reported in PubChem BioAssay AID1645862 (Buhrlage Lab, Dana-Farber Cancer Institute and Novartis …, 2021).
Calls of active or inactive are those of the source. How the calls were made is not given here.

Molecular target: Ubiquitin carboxyl-terminal hydrolase 8 (Homo sapiens) (UniProt P40818)
Assay: Ubiquitin-specific protease 8 inhibitors, concentration-effect, biochemical, validation of initial actives (AID 1645862);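 further: potency reflects inhibition of USP8 cleavage of a ubiquitin rhodamine substrate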
Conditions: recombinant USP8 deubiquitinase activity assay

Ubiquitin carboxyl-terminal hydrolase 8 (Homo sapiens), sequence (P40818 whole entry, looked up): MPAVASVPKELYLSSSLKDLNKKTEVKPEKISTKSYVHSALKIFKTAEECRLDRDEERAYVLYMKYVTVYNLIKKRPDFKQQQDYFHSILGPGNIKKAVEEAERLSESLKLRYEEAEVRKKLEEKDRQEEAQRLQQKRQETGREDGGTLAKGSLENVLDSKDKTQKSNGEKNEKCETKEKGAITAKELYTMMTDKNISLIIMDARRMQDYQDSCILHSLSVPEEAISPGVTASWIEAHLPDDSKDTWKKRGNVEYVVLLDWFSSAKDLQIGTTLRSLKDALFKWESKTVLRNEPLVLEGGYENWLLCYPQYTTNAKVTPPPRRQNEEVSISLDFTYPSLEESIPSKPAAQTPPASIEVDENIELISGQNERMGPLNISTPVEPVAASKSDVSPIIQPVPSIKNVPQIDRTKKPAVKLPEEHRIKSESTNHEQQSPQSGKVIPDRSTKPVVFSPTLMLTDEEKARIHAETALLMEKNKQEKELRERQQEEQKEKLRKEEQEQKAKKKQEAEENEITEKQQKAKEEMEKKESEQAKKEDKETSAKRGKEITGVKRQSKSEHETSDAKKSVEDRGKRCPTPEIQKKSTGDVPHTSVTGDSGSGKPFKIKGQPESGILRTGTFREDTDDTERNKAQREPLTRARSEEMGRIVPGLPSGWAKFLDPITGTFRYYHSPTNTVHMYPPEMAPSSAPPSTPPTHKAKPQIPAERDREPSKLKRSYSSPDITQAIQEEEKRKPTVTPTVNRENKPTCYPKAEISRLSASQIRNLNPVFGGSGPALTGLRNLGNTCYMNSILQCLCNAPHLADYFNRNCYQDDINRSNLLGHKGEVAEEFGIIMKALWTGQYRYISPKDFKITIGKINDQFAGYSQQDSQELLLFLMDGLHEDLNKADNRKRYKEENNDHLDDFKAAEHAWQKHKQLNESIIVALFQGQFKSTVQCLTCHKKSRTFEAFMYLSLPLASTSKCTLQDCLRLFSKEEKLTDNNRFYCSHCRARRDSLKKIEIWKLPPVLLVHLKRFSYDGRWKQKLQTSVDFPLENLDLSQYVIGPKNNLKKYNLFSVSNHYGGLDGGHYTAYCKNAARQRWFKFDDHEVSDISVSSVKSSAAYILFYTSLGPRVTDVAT

| SMILES | IC50 |
| --- | --- |
| Cc1ccc(NC(=O)c2ccc3nn(CC(=O)Nc4ccc(F)cc4F)c(=O)n3c2)cc1 | > 40 µM (inactive) |
| O=C(CN1C(=O)c2ccccc2C1=O)Nc1nc(-c2ccc(Br)cc2)cs1 | > 40 µM (inactive) |
| COc1ccc(OC)c(NC2=NS(=O)(=O)C(c3cccc(Br)c3)=C2C)c1 | > 40 µM (inactive) |
| Cc1cc(O)c(=O)cc2c1C[C@H]1CC(C)(C)/C=C/C[C@@]3(C)Oc4cc(=O)c(O)cc(C)c4C[C@@H]3C[C@H](O)[C@]1(C)O2 | > 40 µM (inactive) |
| COc1cc(=O)c(C(=O)Nc2ccc(C#N)cc2)nn1-c1cccc(F)c1 | > 40 µM (inactive) |
| O=S(=O)(c1ccccc1Cl)N1CCN(c2ccc3nnc(-c4ccco4)n3n2)CC1 | > 40 µM (inactive) |
| COCCNC(=O)Cn1c(=O)n(Cc2ccc(C(=O)NCc3ccc(C)cc3)cc2)c(=O)c2ccccc21 | > 40 µM (inactive) |
| O=c1c2ccccc2nc(/C=C/c2ccco2)n1Cc1ccccc1 | > 40 µM (inactive) |
| O=C1CC(O)C(O)c2cccc(O)c21 (stereo not given) | > 40 µM (inactive) |
| Cc1cccc(C(=O)OCC(=O)Nc2ccc3[nH]c(=O)[nH]c3c2)c1 | > 40 µM (inactive) |
| CSc1ccccc1C(=O)Nc1sc2c(c1C(N)=O)CCC(C)C2 (stereo not given) | > 40 µM (inactive) |
| COc1ccc(NC(=O)Cn2cc(C(=O)c3ccc(Cl)cc3)c(=O)c3cc(F)ccc32)cc1 | > 40 µM (inactive) |
| COc1ccc(-c2cc3nc([C@H](C)NC(=O)Cc4cccc(F)c4)nn3cn2)cc1 | > 40 µM (inactive) |
| Cc1ccc(NC(=O)CSc2nnc(-c3n[nH]c4c3CCC4)n2N)cc1C | > 40 µM (inactive) |
| O=C(/C=C/c1ccc(Br)cc1)Nc1cnc2ccccc2c1 | > 40 µM (inactive) |

Results, then the compound that gave them:

| IC50 | SMILES |
| --- | --- |
| > 40 µM (inactive) | O=C(Cn1c(=O)n(Cc2ccc(C(=O)NCc3ccco3)cc2)c(=O)c2ccccc21)Nc1ccc2c(c1)OCCO2 |
| > 40 µM (inactive) | COc1cccc(-n2cnc3cc(C(=O)NCCc4ccccc4)ccc3c2=O)c1 |
| > 40 µM (inactive) | CCCc1nnc(NC(=O)c2cc(-c3ccccc3O)n[nH]2)s1 |
| > 40 µM (inactive) | COc1cccc(CNC(=O)c2nnn(CC(=O)Nc3cc(C)ccc3C)c2N)c1 |
| 33.2 µM | C[C@H](Cc1cc2c(cc1O)OCO2)[C@@H](C)Cc1cc2c(cc1O)OCO2 |
| > 40 µM (inactive) | CC(=O)Nc1ccc(S(=O)(=O)NCc2ccc(C(=O)NCCc3ccc(Cl)cc3)cc2)cc1 |
| > 40 µM (inactive) | O=C(CCc1nnc2n(Cc3ccccc3)c(=O)c3ccccc3n12)NCc1ccc2c(c1)OCO2 |
| > 40 µM (inactive) | O=C(CSc1nnc2ccc3ccccc3n12)c1ccc(Cl)cc1 |
| > 40 µM (inactive) | CCOc1ccc(-c2ccc3nnc(SCC(=O)Nc4ccc(F)cc4)n3n2)cc1 |
| > 40 µM (inactive) | COc1ccc(CCNC(=O)Cn2c(=O)c3sccc3n(Cc3cccc([N+](=O)[O-])c3)c2=O)cc1OC |
| > 40 µM (inactive) | O[C@H]1[C@H](NCc2cccc(C(F)(F)F)c2)[C@@H](c2cncnc2)C[C@H]1O |
| 14.8 µM | O=C(Nc1cccc([N+](=O)[O-])c1)Nc1ccc2snnc2c1 |
| > 40 µM (inactive) | O=C(Cn1c(COc2ccccc2)nc2ccccc21)Nc1ccc(N2CCOCC2)cc1 |
| > 40 µM (inactive) | O=C(Cn1c(=O)[nH]c2c(-c3ccccc3)c[nH]c2c1=O)NCc1ccccc1Cl |
| > 40 µM (inactive) | COc1ccc(COc2ccc3c(C)c(CC(=O)N4CC[C@@]5(O)CCCC[C@H]5C4)c(=O)oc3c2)cc1 |
| > 40 µM (inactive) | Cc1ccc2cc(-c3noc(CCC(=O)NC4CCCC4)n3)c(=O)[nH]c2c1 |
| > 40 µM (inactive) | COc1ccc2c(c1)CCc1c-2n[nH]c1C(=O)Nc1cc(C)on1 |
| > 40 µM (inactive) | COc1ccc(CSc2nc3ccncc3n2CC(=O)Nc2ccc(C)cc2C)cc1 |
| 15.4 µM | O=C(NCCc1ccccc1)c1ccc2c(=O)n(Cc3ccco3)c(=O)n(Cc3cccc([N+](=O)[O-])c3)c2c1 |
| > 40 µM (inactive) | Fc1cc(F)c2[nH]cc(-c3nnnn3-c3ccc4ccccc4c3)c2c1 |
